The source made the active and inactive calls. No cut-off for these calls is given here.
Assays:
4T1 [1] = test: Antitumor activity against mouse 4T1 cells implanted in female BALB/c mouse assessed as increase in 4-HNE level in tumor at 10 mg/kg, iv administered upto 5 days by Western blot analysis; assay type: functional, organism-based; details: time <= 5.0 day
[2] = Toxicity in female BALB/c mouse implanted with mouse 4T1 cells assessed as spleen lesion at 10 mg/kg, iv; assay type: organism-based; details: in vivo
[3] = Toxicity in female BALB/c mouse implanted with mouse 4T1 cells assessed as lung damage at 10 mg/kg, iv; assay type: organism-based; details: in vivo
MDA-MB-468 [4] = test: Induction of ROS production in human MDA-MB-468 cells assessed as increase in fluorescent signal at 25 nM incubated for 6 hrs by DCFH-DA staining based flow cytometry analysis; assay type: functional, cell-based
MDA-MB-468 [5] = test: Induction of ROS production in human MDA-MB-468 cells assessed as increase in ROS level at 25 nM incubated for 6 hrs by DCFH-DA staining based confocal microscopic analysis; assay type: functional, cell-based
HEK293 = test: Antiproliferative activity against human HEK293 cells assessed as cell viability at 10 nM incubated for 48 hrs by MTT assay; assay type: toxicity, cell-based; details: hek293, 48 h, 0.01 µM
[6] = Toxicity in female BALB/c mouse implanted with mouse 4T1 cells assessed as spleen abnormality at 10 mg/kg, iv; assay type: organism-based; details: in vivo
[7] = Toxicity in female BALB/c mouse implanted with mouse 4T1 cells assessed as heart damage at 10 mg/kg, iv; assay type: organism-based; details: in vivo
MDA-MB-468 [8] = test: Induction of mitochondrial dysfunction in human MDA-MB-468 cells assessed as reduction in oxygen consumption rate (OCR) at 25 nM; assay type: functional, cell-based
[9] = Toxicity in female BALB/c mouse implanted with mouse 4T1 cells assessed as heart lesion at 10 mg/kg, iv; assay type: organism-based; details: in vivo
MDA-MB-468 [10] = test: Inhibition of cell migration in human MDA-MB-468 cells assessed as decrease in cell migration at 25 nM incubated for 48 hrs by wound healing assay; assay type: functional, cell-based
A549 = test: Antiproliferative activity against human A549 cells assessed as cell viability at 10 nM incubated for 48 hrs by MTT assay; assay type: functional, cell-based
4T1 [11] = test: Antitumor activity against mouse 4T1 cells implanted in female BALB/c mouse at 10 mg/kg, iv administered upto 5 days; assay type: functional, organism-based; details: time <= 5.0 day
[12] = Toxicity in female BALB/c mouse implanted with mouse 4T1 cells assessed as heart inflammation at 10 mg/kg, iv; assay type: organism-based; details: in vivo
4T1 [13] = test: Antitumor immunity against mouse 4T1 cells implanted in female BALB/c mouse model assessed as increase in proportion of tumor infiltrating CD8+ T cell at 10 mg/kg, iv administered upto 5 days by flow cytometry analysis; assay type: functional, organism-based; details: time <= 5.0 day
Cisplatin-resistant 4T1 [14] = test: Antitumor activity against mouse Cisplatin-resistant 4T1 cells implanted in female BALB/c mouse assessed as reduction in tumor weight at 10 mg/kg, ip; assay type: functional, organism-based
MDA-MB-468 [15] = test: Antiproliferative activity against human MDA-MB-468 cells assessed as reduction in cell viability at 50 nM incubated for 48 hrs in presence of N-acetyl cysteine by MTT assay; assay type: functional, cell-based
MDA-MB-468 [16] = test: Induction of apoptosis in human MDA-MB-468 cells assessed as increase in caspase 3/7 activation at 25 nM measured at 4 hrs by Western blot analysis; assay type: functional, cell-based
MDA-MB-468 [17] = test: Induction of apoptosis in human MDA-MB-468 cells assessed as increase in activation of caspase at 25 nM by Western blot analysis; assay type: functional, cell-based; details: time 24.0 hrs
MDA-MB-468 [18] = test: Induction of endoplasmic reticulum (ER) stress-mediated apoptosis in human MDA-MB-468 cells assessed as increase in ATF4 expression at 25 nM measured at 2 hrs by Western blot analysis; assay type: functional, cell-based
[19] = Toxicity in female BALB/c mouse implanted with mouse 4T1 cells assessed as kidney damage at 10 mg/kg, iv; assay type: organism-based; details: in vivo
Cisplatin-resistant 4T1 [20] = test: Antitumor activity against mouse Cisplatin-resistant 4T1 cells implanted in female BALB/c mouse assessed as reduction in tumor volume at 10 mg/kg, ip; assay type: functional, organism-based
4T1 [21] = test: Antitumor immunity against mouse 4T1 cells implanted in female BALB/c mouse model assessed as increase in ratio of CD8+ T cells to CD4+ T cells at 10 mg/kg, iv administered upto 5 days by flow cytometry analysis; assay type: functional, organism-based; details: time <= 5.0 day
[22] = Toxicity in female BALB/c mouse implanted with mouse 4T1 cells assessed as kidney lesion at 10 mg/kg, iv; assay type: organism-based; details: in vivo
4T1 [23] = test: Antitumor activity against mouse 4T1 cells implanted in female BALB/c mouse assessed as increase in phospho eIF2alpha level in tumor at 10 mg/kg, iv administered upto 5 days by Western blot analysis; assay type: functional, organism-based; details: time <= 5.0 day
4T1 [24] = test: Antitumor activity against mouse 4T1 cells implanted in female BALB/c mouse assessed as tumor growth inhibition at 10 mg/kg, iv administered upto 5 days; assay type: functional, organism-based; details: time <= 5.0 day
MDA-MB-468 [25] = test: Induction of endoplasmic reticulum (ER) stress-mediated apoptosis in human MDA-MB-468 cells assessed as increase in CHOP expression at 25 nM measured at 2 hrs by Western blot analysis; assay type: functional, cell-based
4T1 [26] = test: Antitumor activity against mouse 4T1 cells implanted in female BALB/c mouse assessed as reduction in tumor weight at 10 mg/kg, iv administered upto 5 days; assay type: functional, organism-based; details: time <= 5.0 day
4T1 [27] = test: Antitumor activity against mouse 4T1 cells implanted in female BALB/c mouse model assessed as reduction in proportion of CD11b+ IL-6+ cells in tumor at 10 mg/kg, iv administered upto 5 days; assay type: functional, organism-based; details: time <= 5.0 day
4T1 [28] = test: Antitumor activity against mouse 4T1 cells implanted in female BALB/c mouse assessed as increase in ATF4 level in tumor at 10 mg/kg, iv administered upto 5 days by Western blot analysis; assay type: functional, organism-based; details: time <= 5.0 day
Cisplatin-resistant 4T1 [29] = test: Antitumor activity against mouse Cisplatin-resistant 4T1 cells implanted in female BALB/c mouse assessed as increase in 4-HNE level at 10 mg/kg, ip; assay type: functional, organism-based
4T1 [30] = test: Antitumor activity against mouse 4T1 cells implanted in female BALB/c mouse assessed as reduction in tumor volume at 10 mg/kg, iv administered upto 5 days; assay type: functional, organism-based; details: time <= 5.0 day
MDA-MB-468 [31] = test: Antiproliferative activity against human MDA-MB-468 cells assessed as reduction in cell viability at 50 nM incubated for 48 hrs in presence of Z-VAD by MTT assay; assay type: functional, cell-based
[32] = Toxicity in female BALB/c mouse implanted with mouse 4T1 cells assessed as liver inflammation at 10 mg/kg, iv; assay type: organism-based; details: in vivo
MDA-MB-468 [33] = test: Induction of ROS production in human MDA-MB-468 cells assessed as increase in fluorescent signal at 25 nM incubated for 6 hrs in presence of N-acetyl cysteine by DCFH-DA staining based flow cytometry analysis; assay type: functional, cell-based
4T1 [34] = test: Antitumor activity against mouse 4T1 cells implanted in female BALB/c mouse model assessed as increase in IFN-gamma expression in tumor at 10 mg/kg, iv administered upto 5 days; assay type: functional, organism-based; details: time <= 5.0 day
4T1 [35] = test: Antitumor activity against mouse 4T1 cells implanted in female BALB/c mouse model assessed as increase in TNF-alpha expression in tumor at 10 mg/kg, iv administered upto 5 days; assay type: functional, organism-based; details: time <= 5.0 day

Compound: CCCCCCC[C@@H]1CC(=O)N[C@H](Cc2ccccc2)C(=O)N[C@H]2CSSC[C@H](NC2=O)C(=O)O1
- Activity (4T1 [1]): Active
- Activity [2]: Non-toxic
- Activity [3]: Non-toxic
- Activity (MDA-MB-468 [4]): Active
- Activity (MDA-MB-468 [5]): Active
- Activity (HEK293): Non-toxic
- Activity [6]: Non-toxic
- Activity [7]: Non-toxic
- Activity (MDA-MB-468 [8]): Active
- Activity [9]: Non-toxic
- inhibition (MDA-MB-468 [10]): Active
- Activity (A549): Active
- Activity (4T1 [11]): Active
- Activity [12]: Non-toxic
- Activity (4T1 [13]): Active
- Activity (Cisplatin-resistant 4T1 [14]): Active
- Activity (MDA-MB-468 [15]): Active
- Activity (MDA-MB-468 [16]): Active
- Activity (MDA-MB-468 [17]): Time-dependent-effect
- Activity (MDA-MB-468 [18]): Active
- Activity [19]: Non-toxic
- Activity (Cisplatin-resistant 4T1 [20]): Active
- Activity (4T1 [21]): Active
- Activity [22]: Non-toxic
- Activity (4T1 [23]): Active
- TGI (4T1 [24]): Active
- Activity (MDA-MB-468 [25]): Active
- Activity (4T1 [26]): Active
- Activity (4T1 [27]): Active
- Activity (4T1 [28]): Active
- Activity (Cisplatin-resistant 4T1 [29]): Active
- Activity (4T1 [30]): Active
- Activity (MDA-MB-468 [31]): Active
- Activity [32]: Non-toxic
- Activity (MDA-MB-468 [33]): Active
- Activity (4T1 [34]): Active
- Activity (4T1 [35]): Active
